Reference: patent KR20230116309A (priority 2022, dated 2023)
Where a name gives a salt, the structure may show the parent alone. Read-outs that look alike come from different tables or passages of the source.

Columns and labels:
[1] = test system: enterovirus 71 [엔테로바이러스 71(EV71)]; details: cited from earlier work
IFN-α [인터페론 알파(IFN-α)] = test system: IFN-α [인터페론 알파(IFN-α)]; parameters: species or system Balb/C mouse; details: mouse, in vivo
IL-6 = test system: IL-6; parameters: species or system Balb/C mouse; details: mouse, in vivo
[2] = test system: human immunodeficiency virus [인간면역결핍 바이러스(HIV)]; details: cited from earlier work
[3] = test system: foot-and-mouth disease virus O/VIT/2013 [구제역바이러스 O/VIT/2013]; type: in vivo, C57BL/6 mouse; details: for survival rate: 16 h before challenge with 250 LD50, day 7
[4] = test system: foot-and-mouth disease virus O/SKR/Boeun/2017 [구제역바이러스(O/SKR/Boeun/2017)]; type: cell-based
[5] = test system: interferon-stimulated gene [인터페론-자극 유전자(interferon-stimulated gene; ISG)]; details: oral administration, human and laboratory animals; cited from earlier work
[6] = test system: human hepatitis C virus [인간 간염 바이러스 C형(HCV)]; details: cited from earlier work
[7] = test system: chronic hepatitis B virus [B형 만성 간염 바이러스]; details: oral administration, human and laboratory animals; cited from earlier work
[8] = test system: foot-and-mouth disease virus O/SKR/Boeun/2017 [O/SKR/Boeun/2017 바이러스]; type: cell-based
IL-12 = test system: IL-12; parameters: species or system Balb/C mouse; details: mouse, in vivo
[9] = test system: porcine interferon alpha protein [돼지 인터페론 알파 단백질]; type: cell-based
[10] = target: T1, TLR7 (toll-like receptor 7) (Homo sapiens, UniProt Q9NYK1); details: oral administration; cited from earlier work
T1 sequence (Q9NYK1 27-1049): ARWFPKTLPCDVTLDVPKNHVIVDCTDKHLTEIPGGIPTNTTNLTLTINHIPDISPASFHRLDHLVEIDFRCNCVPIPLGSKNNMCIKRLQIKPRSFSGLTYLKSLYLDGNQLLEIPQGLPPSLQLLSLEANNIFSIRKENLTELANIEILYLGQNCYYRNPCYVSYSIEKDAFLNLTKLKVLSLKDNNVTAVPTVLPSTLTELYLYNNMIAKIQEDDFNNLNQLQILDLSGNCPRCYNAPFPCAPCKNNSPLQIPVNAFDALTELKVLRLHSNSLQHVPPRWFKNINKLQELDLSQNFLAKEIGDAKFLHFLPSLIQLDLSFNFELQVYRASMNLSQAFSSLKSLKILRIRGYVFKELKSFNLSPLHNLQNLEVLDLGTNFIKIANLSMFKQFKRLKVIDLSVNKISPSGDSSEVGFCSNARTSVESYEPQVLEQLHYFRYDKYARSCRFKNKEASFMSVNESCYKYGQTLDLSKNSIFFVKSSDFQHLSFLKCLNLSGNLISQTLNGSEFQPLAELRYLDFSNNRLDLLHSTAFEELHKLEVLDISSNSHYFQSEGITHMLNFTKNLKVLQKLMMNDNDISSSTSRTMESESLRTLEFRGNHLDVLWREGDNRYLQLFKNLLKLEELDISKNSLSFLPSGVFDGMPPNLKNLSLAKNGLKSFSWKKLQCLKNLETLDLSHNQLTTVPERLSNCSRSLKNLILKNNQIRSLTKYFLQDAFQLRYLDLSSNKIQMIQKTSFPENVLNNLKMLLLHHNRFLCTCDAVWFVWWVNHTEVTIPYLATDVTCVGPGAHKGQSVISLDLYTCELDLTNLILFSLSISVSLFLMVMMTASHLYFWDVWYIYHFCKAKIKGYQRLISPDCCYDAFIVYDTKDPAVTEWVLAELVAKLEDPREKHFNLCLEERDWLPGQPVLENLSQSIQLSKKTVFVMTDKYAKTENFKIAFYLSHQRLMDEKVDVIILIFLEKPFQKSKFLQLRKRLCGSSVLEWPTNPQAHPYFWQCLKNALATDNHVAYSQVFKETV

IFN-γ [인터페론 감마(IFN-γ)] = test system: IFN-γ [인터페론 감마(IFN-γ)]; parameters: species or system Balb/C mouse; details: mouse, in vivo
IP-10 [IP-10(CXCL10)] = test system: IP-10 [IP-10(CXCL10)]; parameters: species or system Balb/C mouse; details: mouse, in vivo
LFBK cells [LFBK 세포] = assay: Cytotoxicity by MTS assay (Test Example 1); type: cell-based, porcine; details: no virus, values in Table 1 (missing)
[11] = test system: proteins involved in foot-and-mouth disease virus replication [구제역바이러스의 증식에 관여하는 단백질]; details: cited from earlier work

CCCCOc1nc(N)c2c(n1)N(Cc1cccc(CN3CCCC3)c1)CC(=O)N2 [GS-9620, 베사톨리모드(Vesatolimod; GS-9620)]
antiviral effect [1]: 항바이러스 효과
IFN-α induction (IFN-α [인터페론 알파(IFN-α)]): 유도되어 나타났다
IL-6 induction (IL-6): 신속하게 또한 지속적으로 유도
antiviral effect [2]: 항바이러스 효과
survival rate ([3]; 10 mg/kg i.p.): 100%
survival rate (duration of protection) ([3]; 10 mg/kg i.p., up to day 5 after administration (challenge 1, 3, 5 days after dosing, 250 LD50)): 100%
survival rate ([3]; printed dose 25 mg/kg ('halved'), i.p.): 80%
FMDV replication inhibitory effect, dose dependence ([4]; 2500~156.2 μM, 24 h pretreatment, 100 TCID50, 48 h): 용량에 비례하여 구제역바이러스 증식억제 효과를 발휘
FMDV replication inhibitory effect compared with ribavirin ([4]; same concentration, P<0.05, 100 TCID50, 48 h): 같은 농도에서 더 우수한 바이러스 증식효과
induction of ISG expression [5]: 발현을 유도
antiviral effect [6]: 항바이러스 효과
inhibition of hepatitis B virus [7]: B형 만성 간염 바이러스를 억제
selectivity index (CC50/EC50) ([8]; LFBK cells, 24 h pretreatment, 100TCID50 virus, 24 h after inoculation): ~650.5
virus inhibitory effect ([8]; LFBK cells, MTS assay, values in Table 1 (missing)): 우수한 바이러스 억제효과
selectivity index relative to ribavirin (fold higher) ([8]; compared with ribavirin): ~5 fold
IL-12 induction (IL-12): 증가가 확인된
IFN-α protein induction [9]: IFN-α 단백질을 성공적으로 유도
TLR7 agonist activity [10]: 효능제(agonist)로 작용
IFN-γ induction (IFN-γ [인터페론 감마(IFN-γ)]): 유도되어 나타났다
IP-10 induction (IP-10 [IP-10(CXCL10)]): 신속하게 또한 지속적으로 유도
cytotoxicity (LFBK cells [LFBK 세포]): 낮은 세포독성

N=C(N)N [구아니딘(Guanidine)-HCl]
inhibition of proteins involved in FMDV replication [11]: 구제역바이러스의 증식에 관여하는 단백질을 억제

NC(=O)c1ncn([C@@H]2O[C@H](CO)[C@@H](O)[C@H]2O)n1 [리바비린, 리바비린(ribavirin)]
inhibition of proteins involved in FMDV replication [11]: 구제역바이러스의 증식에 관여하는 단백질을 억제

O=c1cnn([C@@H]2O[C@H](CO)[C@@H](O)[C@H]2O)c(=O)[nH]1 [6-아자우리딘(azauridine)]
inhibition of proteins involved in FMDV replication [11]: 구제역바이러스의 증식에 관여하는 단백질을 억제
